Entries after “also recorded” stand apart in the source; their conditions may differ.
Assays:
[1] = Percentage of weight gain in ApoE −/− mice; format: in vivo, mouse; conditions: Roxa 10 mg/kg subcutaneous, three times per week for 12 weeks, vs vehicle, p<0.05
Protocol: (§1) The whole blood samples of mice were collected by cardiac puncture after sacrificing. The blood samples were allowed to clot by leaving it undisturbed at room temperature for 15 minutes. The clot was removed by centrifuging at 1,000-2,000×g for 10 minutes in a refrigerated centrifuge. The resulting supernatant was designated serum. Then the cholesterol level in the serum was evaluated by using a commercially available cholesterol fluorometric assay kit (#10007640, Cayman Chemical, Mich.). The weight of each mice was measured before and after the experiment. The percentage of weight gain was compared between the Roxa-treated mice and the vehicle-treated mice.
(§2) At the beginning of the study, the 16 ApoE−/− mice and 4 wild-type (WT) C57BL/6J mice, 12 weeks of age, were measured for their weight, tear volume, corneal fluorescein staining and tear breakup time (TBUT). The ApoE −/− mice were randomly divide into 2 groups (n=8 mice/group) and treated with vehicle control (2% DMSO in sterile saline, subcutaneous injection) or Roxa (10 mg/kg, subcutaneous injection). The injections were administrated three times per week (on Monday, Wednesday, and Friday mornings) for 12 weeks. […] At the end of the study, the weight, tear volume, corneal fluorescein staining and tear breakup time (TBUT) were measured again. […]

IHMGECs [2] = assay: Intracellular pH in IHMGECs; format: cell-based, human; conditions: exposure to Roxa, in vitro
From the text: It was recently discovered that a hypoxic environment is beneficial for meibomian gland (MG) function. The mechanism(s) underlying this effect was unknown, but may be due to an increase in the levels of hypoxia-inducible factor 1α (HIF1a). In other tissues, HIF1α is the primary regulator of cellular responses to hypoxia and HIF1α expression can be induced by multiple stimuli, including hypoxia and low oxygen mimetic agents. In the current studies described in this Example, human eyelid tissues were stained for HIF1α. Immortalized human MG epithelial cells (IHMGECs) were cultured for varying time periods under normoxic (21% O2) or hypoxic (1% O2) conditions, in the presence or absence of the low oxygen mimetic agent Roxadustat (Roxa). IHMGECs were then processed for the analysis of cell number, HIF1α expression, lipid-containing vesicles, neutral and polar lipid content, DNase II activity and intracellular pH. […] The data support that the beneficial effect of hypoxia on the MG is mediated through an increased expression of HIF1α.

IHMGECs [3] = assay: Oil red O (ORO) staining of neutral lipid droplets in IHMGECs; format: cell-based, human
Protocol: Authenticated IHMGECs were grown and passaged in keratinocyte serum-free medium (KSFM) with 5 ng/mL epidermal growth factor (EGF) and 50 μg/mL bovine pituitary extract (BPE) (Thermo Fisher Scientific, Waltham, Mass.) under 21% O2 (normoxia) [Liu et al. (2010) Investigative ophthalmology & visual science 51:3993-4005; McDermott et al. (2018) Current eye research 43:1097-1101; Liu et al. (2013) Investigative ophthalmology & visual science 54:2541-2550]. Upon reaching 60% to 70% confluence, culture media were replaced by a 1:1 mixture of Dulbecco's modified Eagle's medium and Ham's F12 (DMEM/F12, Corning Life Sciences, Tewksbury, Mass.), supplemented with 10% fetal bovine serum (FBS, Atlanta Biologicals, Flowery Branch, Ga.) [Sullivan et al. (2014) Investigative ophthalmology & visual science 55:3866-3877; Liu et al. (2014) JAMA ophthalmology 132:226-228]. Cells were cultured for 4-10 days under 21% O2 (normoxic) or 1% O2 (hypoxic) conditions. […]
After four days of incubation, cells seeded on chamber slides (Corning, Rochester, N.Y.) were stained with 0.3% Oil red 0 (ORO, Fisher Biotec, Wembley, Wash., Australia) according to the published protocol in Liu et al. (2010) Investigative ophthalmology & visual science 51:3993-4005) and Liu et al. (2014) Toxicology 320:1-5. […] The size of the stained area was quantified using ImageJ [Deutsch et al. (2014) Anal Biochem 445:87-89]. […]

[4] = system: apolipoprotein E-deficient (ApoE −/−) mice; assay: Serum cholesterol in ApoE −/− mice (cholesterol fluorometric assay kit); format: in vivo, mouse; conditions: Roxa 10 mg/kg subcutaneous, three times per week for 12 weeks, vs vehicle, p<0.05
Protocol: as §1, §2

IHMGECs [5] = assay: Cell number of IHMGECs (hemocytometer); format: cell-based, human
Protocol: After being treated with 21% O2, 1% O2, 10 μM Roxa or a combination for 10 days, cell numbers were counted with a hemocytometer and the cell lysates and cell culture supernatants were collected, as previously described in Liu et al. (2019) The ocular surface 17(2):310-317. DNase II activity in fresh samples was analyzed by SREDA in agarose gels according to published protocols in Liu et al. (2019) The ocular surface 17(2):310-317 and Oka et al. (2012) Nature 485:251-255. Cell lysates and culture media were used to measure the DNase II activity inside and outside of the cells, respectively [Liu et al. (2019) The ocular surface 17(2):310-317]. After incubation for 3-24 hours at 37° C., the area of the dark circle in the gel was measured under an UV trans-illuminator at 312 nm. For comparison between conditions, values were normalized to cell number.
Low O2 increases DNase II activity and promotes cell terminal differentiation of IHMGECs (Liu et al. Ocul Surf 2019; 17:310-317). To determine whether Roxa treatment can reproduce this hypoxic effect, IHMGECs were treated with Roxa in both normoxic and 1% O2 conditions for 10 days, prior to counting cell numbers and analyzing DNase II activity in cell lysates and supernatants.

Cc1nc(C(=O)NCC(=O)O)c(O)c2ccc(Oc3ccccc3)cc12 [Roxa, roxadustat]
percentage of weight gain [1]: significantly reduced
pH in IHMGECs (IHMGECs [2]): decreases
accumulation of neutral lipid droplets in IHMGECs (area of ORO staining) (IHMGECs [3]; Roxa alone, 21% O2, 4 days): significantly increased; also recorded: duplicated the effect of a hypoxic environment
accumulation of neutral lipid droplets in IHMGECs (area of ORO staining), combination of Roxa and 1% O2 (IHMGECs [3]; Roxa in 1% O2, 4 days): significantly increased; also recorded: further increased
serum cholesterol level [4]: significantly reduced
cell number of IHMGECs (IHMGECs [5]; Roxa alone, 21% O2, 10 days): significant decreases
cell number of IHMGECs, combination of Roxa and 1% O2 (IHMGECs [5]; Roxa in 1% O2, 10 days): significant decreases

Reference: patent publication US20220347167A1, “A NEW TREATMENT FOR MEIBOMIAN GLAND DYSFUNCTION” (The Schepens Eye Research Institute, Inc., priority 2019, published 2022)
